Tests used:
[1] = tested on: promastigote forms of L. major; assay: Leishmania major promastigote growth inhibition assay (Alamar Blue); assay type: cell-based; conditions: promastigotes, 44 hours + 4 hours Alamar Blue, read-out: IC50: I Org. promastigote Growth L. major, 2 d
Excerpt: Example 108. Leishmania major Promastigote Growth Inhibition Assay
The promastigote assay is a microtiter plate drug sensitivity prescreen assay used to determine antileishmanial activity of candidate drugs against promastigote forms of L. major. (Shadow et al., PLOS Neglected Tropical Diseases, 2009, e311.) Alamar Blue, or resazurin, is a non-fluorescent indicator dye that is converted to bright red-fluorescent resorufin via the activity of mitochondrial reductases. As the activity of mitochondrial reductases is reduced in cells that are dead or dying, and the intensity of the fluorescence is relative to cell number, a test compound that kills or inhibits growth of a particular target cell, such as L. major, will result in a lower production of fluorescent signal. Pre-dosed microtiter drug plates for use in the promastigote drug prescreen assay were produced using sterile 384-well black optical bottom tissue culture plates (Nunc Cat #12-565-344). Candidate drugs were diluted in dimethyl sulfoxide in four 96-well plates to either 10,000 ng/ml or 1,000 ng/ml, and 4.25 μL of diluted drug was subsequently dispensed into each well of a 384-well plate. Duplicate 384 well plates were made at each test concentration (10,000 ng/mL and 1,000 ng/mL) and amphotericin B was used as a batch control. The Tecan EVO Freedom liquid handling system (Tecan US, Inc., Durham, N.C.) was used to produce all drug assay plates and conduct all pipetting operations for this assay. L. major parasites were cultured in Schneider's medium (Lonza Cat #04-351Q) supplemented with 20% heat inactivated FBS (Invitrogen Cat #16140-089). Promastigotes in early log growth phase were harvested from culture, counted, suspended at 1.32×10^5 cells/mF and 5,000 promastigotes were dispensed into each well of the 384 well plate in a volume of 38.8 μL. The 384 well plates were subsequently incubated at 28° C. for 44 hours. 8.4 μF of Alamar Blue (Promega, Cat #G8081) was added to each well, the plates were subsequently incubated at 28° C. and 5% CO2 for 4 hours and then examined for the relative fluorescence units (RFU) per well using the Tecan Genios Plus (Tecan US, Inc., Durham, N.C.) with excitation set at 560 nm and emission set at 590 nm. The relative fluorescence from each well was used to determine the percent growth inhibition of each candidate compound tested. Compounds with 50% or greater inhibition of growth were selected for further analysis to determine IC50 values.

[2] = tested on: IL3000 T. congolense (drug sensitive) strain; assay: In vitro Alamar Blue 72 h drug sensitivity assay for T. congolense; assay type: cell-based; conditions: Trypanosoma congolense; bloodstream form, 69 h + 3 h resazurin, 34° C.; classes A-C; read-out: IC50: I Org. Growth T. congolense IL-3000, 3 d
Procedure, shortened: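 Bloodstream-form trypanosomes in HMI medium with 20% bovine serum, exposed to compound for 69 h at 34 °C, 5% CO2, then resazurin for 3 h more. Fluorescence read at 536/588 nm. IC50 from 11-point sigmoidal dose-response curves, at least three independent runs.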

In the case of `Cc1c(C(=O)Nc2ccc3c(c2)B(O)OC3C)nnn1-c1ccccn1` (centres unmarked) [Example 24, N-(1-hydroxy-3-methyl-1,3-dihydrobenzo[c][1,2]oxaborol-6-yl)-5-methyl-1-(pyridin-2-yl)-1H-1,2,3-triazole-4-carboxamide], the IC50 [1] is reported as 600 to 2500 nM and the IC50 [2] is reported as under 100 nM.

`CC1OB(O)c2cc(NC(=O)c3cn(-c4cccnc4)nn3)ccc21` (centres unmarked) [Example 12, N-(1-hydroxy-3-methyl-1,3-dihydrobenzo[c][1,2]oxaborol-6-yl)-1-(pyridin-3-yl)-1H-1,2,3-triazole-4-carboxamide] showed an IC50 [1] of 2510 to 20000 nM and an IC50 [2] of under 100 nM.

`COc1ccc(-n2cc(C(=O)Nc3ccc4c(c3)B(O)OC4C)nn2)cc1` (centres unmarked) [Example 22, N-(1-hydroxy-3-methyl-1,3-dihydrobenzo[c][1,2]oxaborol-6-yl)-1-(4-methoxyphenyl)-1H-1,2,3-triazole-4-carboxamide] showed an IC50 [1] of under 600 nM and an IC50 [2] of 100 to 300 nM.

`CC1OB(O)c2cc(NC(=O)c3cn(-c4ccccn4)nn3)ccc21` (centres unmarked) [Example 23, N-(1-hydroxy-3-methyl-1,3-dihydrobenzo[c][1,2]oxaborol-6-yl)-1-(pyridin-2-yl)-1H-1,2,3-triazole-4-carboxamide] showed an IC50 [1] of under 600 nM and an IC50 [2] of under 100 nM.

`O=C(Nc1ccc2c(c1)B(O)OC21CCC1)c1cn(-c2ccccn2)nn1` [Example 26, N-(1-hydroxy-1H-spiro[benzo[c][1,2]oxaborole-3,1′-cyclobutan]-6-yl)-1-(pyridin-2-yl)-1H-1,2,3-triazole-4-carboxamide] showed an IC50 [1] of 2510 to 20000 nM and an IC50 [2] of 310 to 100000 nM.

`Cc1ccc(-n2cc(C(=O)Nc3ccc4c(c3)B(O)OC4C)nn2)cc1` (centres unmarked) [Example 18, N-(1-hydroxy-3-methyl-1,3-dihydrobenzo[c][1,2]oxaborol-6-yl)-1-(p-tolyl)-1H-1,2,3-triazole-4-carboxamide] showed an IC50 [1] of 600 to 2500 nM and an IC50 [2] of under 100 nM.

In the case of `O=C(Nc1ccc2c(c1)B(O)OC21CCC1)c1cn(-c2cccnc2)nn1` [Example 8, N-(1-hydroxy-1H-spiro[benzo[c][1,2]oxaborole-3,1′-cyclobutan]-6-yl)-1-(pyridin-3-yl)-1H-1,2,3-triazole-4-carboxamide], the IC50 [1] is reported as 2510 to 20000 nM and the IC50 [2] is reported as 310 to 100000 nM.

Work on `COc1ccc(-n2cc(C(=O)Nc3ccc4c(c3)B(O)OC43CCC3)nn2)cc1` [Example 25, N-(1-hydroxy-1H-spiro[benzo[c][1,2]oxaborole-3,1′-cyclobutan]-6-yl)-1-(4-methoxyphenyl)-1H-1,2,3-triazole-4-carboxamide] yielded an IC50 [1] of 2510 to 20000 nM and an IC50 [2] of 310 to 100000 nM.

Molecule `Cc1c(C(=O)Nc2ccc3c(c2)B(O)OC3C)nnn1-c1ccc(F)cc1` (centres unmarked) [Example 6, 1-(4-fluorophenyl)-N-(1-hydroxy-3-methyl-1,3-dihydrobenzo[c][1,2]oxaborol-6-yl)-5-methyl-1H-1,2,3-triazole-4-carboxamide] has an IC50 [1] of 600 to 2500 nM and an IC50 [2] of 100 to 300 nM.

`O=C(Nc1ccc2c(c1)B(O)OC2)c1nnn(-c2ccc(F)cc2)c1C(F)(F)F` [Example 70, 1-(4-Fluorophenyl)-N-(1-hydroxy-1,3-dihydrobenzo[c][1,2]oxaborol-6-yl)-5-(trifluoromethyl)-1H-1,2,3-triazole-4-carboxamide] showed an IC50 [2] of 100 to 300 nM.

In the case of `O=C(Nc1ccc2c(c1)B(O)OC21CCC1)c1cn(-c2ccccc2)nn1` [Example 3, N-(1-hydroxy-1H-spiro[benzo[c][1,2]oxaborole-3,1′-cyclobutan]-6-yl)-1-phenyl-1H-1,2,3-triazole-4-carboxamide], the IC50 [1] is reported as 600 to 2500 nM and the IC50 [2] is reported as 100 to 300 nM.

`O=C(Nc1ccc2c(c1)B(O)OC2)c1nnn(-c2cccnc2)c1C(F)(F)F` [Example 71, N-(1-hydroxy-1,3-dihydrobenzo[c][1,2]oxaborol-6-yl)-1-(pyridin-3-yl)-5-(trifluoromethyl)-1H-1,2,3-triazole-4-carboxamide] gave an IC50 [2] of under 100 nM.

`O=C(Nc1ccc2c(c1)B(O)OC2)c1nnn(-c2cccc(F)c2)c1C(F)(F)F` [Example 69, 1-(3-Fluorophenyl)-N-(1-hydroxy-1,3-dihydrobenzo[c][1,2]oxaborol-6-yl)-5-(trifluoromethyl)-1H-1,2,3-triazole-4-carboxamide] gave an IC50 [2] of 100 to 300 nM.

For `Cc1ccc(-n2nnc(C(=O)Nc3ccc4c(c3)B(O)OC43CCC3)c2C)cc1` [Example 16, N-(1-hydroxy-1H-spiro[benzo[c][1,2]oxaborole-3,1′-cyclobutan]-6-yl)-5-methyl-1-(p-tolyl)-1H-1,2,3-triazole-4-carboxamide], the IC50 [1] was 600 to 2500 nM and the IC50 [2] was 310 to 100000 nM.

`O=C(Nc1ccc2c(c1)B(O)OC2)c1nnn(-c2ccccc2F)c1C(F)(F)F` [Example 67, 1-(2-Fluorophenyl)-N-(1-hydroxy-1,3-dihydrobenzo[c][1,2]oxaborol-6-yl)-5-(trifluoromethyl)-1H-1,2,3-triazole-4-carboxamide] gave an IC50 [2] of 100 to 300 nM.

In the case of `COc1ccc(-n2cc(C(=O)Nc3ccc4c(c3)B(O)OC4)nn2)cc1` [Example 21, N-(1-hydroxy-1,3-dihydrobenzo[c][1,2]oxaborol-6-yl)-1-(4-methoxyphenyl)-1H-1,2,3-triazole-4-carboxamide], the IC50 [1] is reported as under 600 nM and the IC50 [2] is reported as under 100 nM.

`Cc1ccc(-n2nnc(C(=O)Nc3ccc4c(c3)B(O)OC4)c2C)cc1` [Example 11, N-(1-hydroxy-1,3-dihydrobenzo[c][1,2]oxaborol-6-yl)-5-methyl-1-(p-tolyl)-1H-1,2,3-triazole-4-carboxamide] showed an IC50 [1] of under 600 nM and an IC50 [2] of under 100 nM.

In the case of `CC1OB(O)c2cc(NC(=O)c3cn(-c4ccccc4)nn3)ccc21` (centres unmarked) [Example 2], the IC50 [1] is reported as under 600 nM and the IC50 [2] is reported as under 100 nM.

Molecule `COc1ccc(-n2nnc(C(=O)Nc3ccc4c(c3)B(O)OC43CCC3)c2C)cc1` [Example 20, N-(1-hydroxy-1H-spiro[benzo[c][1,2]oxaborole-3,1′-cyclobutan]-6-yl)-1-(4-methoxyphenyl)-5-methyl-1H-1,2,3-triazole-4-carboxamide] has an IC50 [1] of under 600 nM and an IC50 [2] of 310 to 100000 nM.

`Cc1ccc(-n2cc(C(=O)Nc3ccc4c(c3)B(O)OC43CCC3)nn2)cc1` [Example 15] showed an IC50 [1] of 2510 to 20000 nM and an IC50 [2] of 100 to 300 nM.

`Cc1c(C(=O)Nc2ccc3c(c2)B(O)OC32CCC2)nnn1-c1cccnc1` [Example 17, N-(1-hydroxy-1H-spiro[benzo[c][1,2]oxaborole-3,1′-cyclobutan]-6-yl)-5-methyl-1-(pyridin-3-yl)-1H-1,2,3-triazole-4-carboxamide] gave an IC50 [1] of 2510 to 20000 nM and an IC50 [2] of 310 to 100000 nM.

For `Cc1c(C(=O)Nc2ccc3c(c2)B(O)OC32CCC2)nnn1-c1ccccc1` [Example 4, N-(1-hydroxy-1H-spiro[benzo[c][1,2]oxaborole-3,1′-cyclobutan]-6-yl)-5-methyl-1-phenyl-1H-1,2,3-triazole-4-carboxamide], the IC50 [1] was 600 to 2500 nM and the IC50 [2] was 100 to 300 nM.

`Cc1c(C(=O)Nc2ccc3c(c2)B(O)OC32CCC2)nnn1-c1ccc(F)cc1` [Example 9, 1-(4-fluorophenyl)-N-(1-hydroxy-1H-spiro[benzo[c][1,2]oxaborole-3,1′-cyclobutan]-6-yl)-5-methyl-1H-1,2,3-triazole-4-carboxamide] was tested, and the IC50 [1] was 600 to 2500 nM and the IC50 [2] was 310 to 100000 nM.

With `Cc1ccc(-n2nnc(C(=O)Nc3ccc4c(c3)B(O)OC4C)c2C)cc1` (centres unmarked) [Example 13, N-(1-hydroxy-3-methyl-1,3-dihydrobenzo[c][1,2]oxaborol-6-yl)-5-methyl-1-(p-tolyl)-1H-1,2,3-triazole-4-carboxamide] the IC50 [1] was 600 to 2500 nM and the IC50 [2] was 100 to 300 nM.

Reference: patent US11691992B2 (Anacor Pharmaceuticals, Inc., priority 2017, dated 2023)
